In patent publication US11957687B2 (REGENERON PHARMACEUTICALS, INC., priority 2019, dated 2024):

Biological target: HSD17B13 (Homo sapiens (Human), UniProt Q7Z5P4)
Assay: HSD17B13 enzymatic inhibition assay (150 nM or 50 nM HSD17B13)
Type: biochemical
Conditions: 50 nM HSD17B13; read-out: Inhibition of 50 nM of HSD17B13 IC50

Sequence of HSD17B13 (Q7Z5P4 other isoform, or with tags, fused parts or gaps): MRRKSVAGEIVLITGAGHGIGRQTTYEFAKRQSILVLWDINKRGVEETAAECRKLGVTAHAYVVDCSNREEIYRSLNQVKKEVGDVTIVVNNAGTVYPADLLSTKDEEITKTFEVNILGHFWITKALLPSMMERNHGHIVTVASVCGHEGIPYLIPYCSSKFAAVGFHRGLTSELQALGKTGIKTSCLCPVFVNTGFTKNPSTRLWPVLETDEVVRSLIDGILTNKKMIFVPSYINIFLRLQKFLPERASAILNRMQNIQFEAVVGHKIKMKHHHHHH

IC50 [nM] | SMILES
270 | COc1cccc(C(NC(=O)c2ccc(C(F)(F)F)[nH]c2=O)c2ccc(C)cc2)c1 (stereo not shown) [Compound 446, N-((3-methoxyphenyl)(p-tolyl)methyl)-2-oxo-6-(trifluoromethyl)-1,2-dihydropyridine-3-carboxamide]
160 | COc1ccc(C(NC(=O)c2ccc(C(F)(F)F)[nH]c2=O)c2ccc(C)cc2)cc1 (stereo not shown) [Compound 447, N-((4-methoxyphenyl)(p-tolyl)methyl)-2-oxo-6-(trifluoromethyl)-1,2-dihydropyridine-3-carboxamide]
140 | CSc1ccc(C(NC(=O)c2ccc(C(F)(F)F)[nH]c2=O)c2ccc(C)cc2)cc1 (stereo not shown) [Compound 448, N-((4-(methylthio)phenyl)(p-tolyl)methyl)-2-oxo-6-(trifluoromethyl)-1,2-dihydropyridine-3-carboxamide]
970 | COc1cc(C)ccc1C(NC(=O)c1ccc(C(F)(F)F)[nH]c1=O)c1ccccc1 (stereo not shown) [Compound 449, N-((2-methoxy-4-methylphenyl)(phenyl)methyl)-2-oxo-6-(trifluoromethyl)-1,2-dihydropyridine-3-carboxamide]
1100 | Cc1ccc(C(NC(=O)c2ccc(C(F)(F)F)[nH]c2=O)c2ccccc2S(C)(=O)=O)cc1 (stereo not shown) [Compound 450, N-((2-(methylsulfonyl)phenyl)(p-tolyl)methyl)-2-oxo-6-(trifluoromethyl)-1,2-dihydropyridine-3-carboxamide]
1960 | COc1c(C)cccc1C(NC(=O)c1ccc(C(F)(F)F)[nH]c1=O)c1ccccc1 (stereo not shown) [Compound 451, N-((2-methoxy-3-methylphenyl)(phenyl)methyl)-2-oxo-6-(trifluoromethyl)-1,2-dihydropyridine-3-carboxamide]
7030 | Cc1cccc(C(NC(=O)c2ccc(C(F)(F)F)[nH]c2=O)c2ccccc2S(C)(=O)=O)c1 (stereo not shown) [Compound 452, N-((2-(methylsulfonyl)phenyl)(m-tolyl)methyl)-2-oxo-6-(trifluoromethyl)-1,2-dihydropyridine-3-carboxamide]
3230 | Cc1cccc(C(NC(=O)c2ccc(C(F)(F)F)[nH]c2=O)c2ccccc2)c1S(C)(=O)=O (stereo not shown) [Compound 453, N-((3-methyl-2-(methylsulfonyl)phenyl) (phenyl)methyl)-2-oxo-6-(trifluoromethyl)-1,2-dihydropyridine-3-carboxamide]
1810 | CCc1cccc(C(NC(=O)c2ccc(C(F)(F)F)[nH]c2=O)c2ccccc2OC)c1 (stereo not shown) [Compound 454, N-((3-ethylphenyl)(2-methoxyphenyl)methyl)-2-oxo-6-(trifluoromethyl)-1,2-dihydropyridine-3-carboxamide]
870 | CCc1cccc(C(NC(=O)c2ccc(C(F)(F)F)[nH]c2=O)c2ccccc2SC)c1 (stereo not shown) [Compound 455, N-((3-ethylphenyl)(2-(methylthio)phenyl)methyl)-2-oxo-6-(trifluoromethyl)-1,2-dihydropyridine-3-carboxamide]
4830 | CCc1cccc(C(NC(=O)c2ccc(C(F)(F)F)[nH]c2=O)c2ccccc2S(C)(=O)=O)c1 (stereo not shown) [Compound 456, N-((3-ethylphenyl)(2-(methylsulfonyl)phenyl)methyl)-2-oxo-6-(trifluoromethyl)-1,2-dihydropyridine-3-carboxamide]
120 | CCCc1ccc2c(c1)C(NC(=O)c1ccc(C(F)(F)F)[nH]c1=O)c1ccccc1O2 (stereo not shown) [Compound 457, 2-oxo-N-(2-propyl-9H-xanthen-9-yl)-6-(trifluoromethyl)-1,2-dihydropyridine-3-carboxamide]
520 | CCCc1ccc2c(c1)C(NC(=O)c1ccc(C(F)(F)F)[nH]c1=O)c1ccccc1S2 (stereo not shown) [Compound 458, 2-oxo-N-(2-propyl-9H-thioxanthen-9-yl)-6-(trifluoromethyl)-1,2-dihydropyridine-3-carboxamide]
> 10000 | Cc1ccc2c(c1)Oc1cc(C)ccc1C2NC(=O)c1ccc(-c2ccccc2)[nH]c1=O [Compound 459, N-(3,6-dimethyl-9H-xanthen-9-yl)-2-oxo-6-phenyl-1,2-dihydropyridine-3-carboxamide]
140 | Cc1ccc2c(c1)S(=O)(=O)c1cc(C)ccc1C2NC(=O)c1cc(CO)c(C(F)(F)F)[nH]c1=O [Compound 462, N-(3,6-dimethyl-10,10-dioxido-9H-thioxanthen-9-yl)-5-(hydroxymethyl)-2-oxo-6-(trifluoromethyl)-1,2-dihydropyridine-3-carboxamide]
50 | Cc1ccc2c(c1)Sc1cc(C)ccc1C2NC(=O)c1cc(CO)c(C(F)(F)F)[nH]c1=O [Compound 463, N-(3,6-dimethyl-9H-thioxanthen-9-yl)-5-(hydroxymethyl)-2-oxo-6-(trifluoromethyl)-1,2-dihydropyridine-3-carboxamide]
10 | Cc1ccc2c(c1)Oc1cc(C)ccc1C2NC(=O)c1cc(CO)c(C(F)(F)F)[nH]c1=O [Compound 464, N-(3,6-dimethyl-9H-xanthen-9-yl)-5-(hydroxymethyl)-2-oxo-6-(trifluoromethyl)-1,2-dihydropyridine-3-carboxamide]
610 | CCCc1cccc(C(NC(=O)c2ccc(C(F)(F)F)[nH]c2=O)c2ccccc2)c1 (stereo not shown) [Compound 465, 2-oxo-N-(phenyl(3-propylphenyl)methyl)-6-(trifluoromethyl)-1,2-dihydropyridine-3-carboxamide]
600 | CCc1cccc(C(NC(=O)c2ccc(C(F)(F)F)[nH]c2=O)c2ccccc2)c1 (stereo not shown) [Compound 466, N-((3-ethylphenyl)(phenyl)methyl)-2-oxo-6-(trifluoromethyl)-1,2-dihydropyridine-3-carboxamide]
990 | C=Cc1cccc(C(NC(=O)c2ccc(C(F)(F)F)[nH]c2=O)c2ccccc2)c1 (stereo not shown) [Compound 467, 2-oxo-N-(phenyl(3-vinylphenyl)methyl)-6-(trifluoromethyl)-1,2-dihydropyridine-3-carboxamide]
190 | CCc1ccc2c(c1)C(NC(=O)c1ccc(C(F)(F)F)[nH]c1=O)c1ccccc1S2(=O)=O (stereo not shown) [Compound 468, N-(2-ethyl-10,10-dioxido-9H-thioxanthen-9-yl)-2-oxo-6-(trifluoromethyl)-1,2-dihydropyridine-3-carboxamide]
310 | CCCc1ccc2c(c1)C(NC(=O)c1ccc(C(F)(F)F)[nH]c1=O)c1ccccc1S2(=O)=O (stereo not shown) [Compound 469, N-(10,10-dioxido-2-propyl-9H-thioxanthen-9-yl)-2-oxo-6-(trifluoromethyl)-1,2-dihydropyridine-3-carboxamide]
420 | Cc1ccc2c(c1)C(NC(=O)c1ccc(C(F)(F)F)[nH]c1=O)c1ccccc1S2(=O)=O (stereo not shown) [Compound 470, N-(2-methyl-10,10-dioxido-9H-thioxanthen-9-yl)-2-oxo-6-(trifluoromethyl)-1,2-dihydropyridine-3-carboxamide]
280 | C=CCc1ccc2c(c1)C(NC(=O)c1ccc(C(F)(F)F)[nH]c1=O)c1ccccc1O2 (stereo not shown) [Compound 471, N-(2-allyl-9H-xanthen-9-yl)-2-oxo-6-(trifluoromethyl)-1,2-dihydropyridine-3-carboxamide]
480 | O=C(NC1c2ccccc2S(=O)(=O)c2ccc(CC(F)(F)F)cc21)c1ccc(C(F)(F)F)[nH]c1=O (stereo not shown) [Compound 472, N-(10,10-dioxido-2-(2,2,2-trifluoroethyl)-9H-thioxanthen-9-yl)-2-oxo-6-(trifluoromethyl)-1,2-dihydropyridine-3-carboxamide]
